Counter-ions that a name gives are not always drawn.
Columns and labels:
[1] = Viscosity of saturated or unsaturated aqueous solutions of APIs, rotational viscometer (Brooksfield); format: physicochemical
Method: The viscosities of saturated aqueous solutions or aqueous solutions with different weight percentage are measured with Rotational viscometers (Brooksfield, USA) at constant temperature 25° C., and the rotation speed is 5-100 rpm.
(§1) The viscosities of saturated aqueous solutions or aqueous solutions with different weight percentage of the compounds are measured with Rotational viscometers (Brooksfield, USA) at 25° C.

[2] = Tablet-forming ability of APIs (self-granulation with water, hardness and friability of tablets); format: physicochemical; settings: tablets of 99% API and 1% magnesium stearate, about 100 mg; for The tablet-forming ability Hardness of tablets (kp): wet granulated with purified water
Method: as §1
Each API listed in Table 1-1 is separately weighed […] and wet granulated in a high shear mixer using purified water. The wet granules are dried in an oven and sieved with 20 mesh screen. Each of the dried granules is separately transferred into a V-blender, and mixed with 5 g of magnesium stearate. The obtained mixture is compressed into tablets. Every tablet weighs about 100 mg, and contains magnesium stearate and an individual API.

[3] = prior art formulation with lactose, microcrystalline cellulose, crospovidone, magnesium stearate; cited from earlier work

| Unsaturated aqueous solution at 25° C. Viscosity (cP) ([1]; weight percent 30%) | Saturated aqueous solution at 25° C. Viscosity (cP) [1] | The tablet-forming ability Friability of tablets (%) [2] | The tablet-forming ability Hardness of tablets (kp) [2] | Unsaturated aqueous solution at 25° C. Viscosity (cP) ([1]; weight percent 25%) | Unsaturated aqueous solution at 25° C. Viscosity (cP) ([1]; weight percent 10%) | Structure (SMILES) | drug dissolved in 5 minutes in vitro [3] |
| --- | --- | --- | --- | --- | --- | --- | --- |
| ~10 cP | ~170 cP | <0.1% | 3-8 kp | – | – | COc1cc2nc(N(C)CCCNC(=O)C3CCCO3)nc(N)c2cc1OC (stereo not shown) [Alfuzosin HCl] | – |
| – | ~1100 cP | <0.1% | 3-8 kp | ~15 cP | – | Cc1ccc(NC(=O)c2ccc(CN3CCN(C)CC3)cc2)cc1Nc1nccc(-c2cccnc2)n1 [Imatinib mesylate] | – |
| – | ~2 cP | – | – | – | – | CN(C)C(=N)N=C(N)N [Metformin HCl] | – |

The next lines start with the compound.

| Structure (SMILES) | Unsaturated aqueous solution at 25° C. Viscosity (cP) ([1]; weight percent 30%) | Saturated aqueous solution at 25° C. Viscosity (cP) [1] | The tablet-forming ability Friability of tablets (%) [2] | The tablet-forming ability Hardness of tablets (kp) [2] | Unsaturated aqueous solution at 25° C. Viscosity (cP) ([1]; weight percent 25%) | Unsaturated aqueous solution at 25° C. Viscosity (cP) ([1]; weight percent 10%) | drug dissolved in 5 minutes in vitro [3] |
| --- | --- | --- | --- | --- | --- | --- | --- |
| NS(=O)(=O)c1cc2c(cc1Cl)NCNS2(=O)=O [Hydrochlorothiazide] | – | ~1 cP | – | – | – | – | – |
| CCCCCCCCOc1ccccc1C(=O)Nc1ccc(C(=O)OCC[N+](C)(CC)CC)cc1 [Otilonium bromide] | – | ~540 cP | <0.1% | 3-8 kp | – | ~12 cP | more than 90% |
| CCN1CCCC1CNC(=O)c1cc(S(N)(=O)=O)ccc1OC (stereo not shown) [Sulpiride] | – | ~2 cP | – | – | – | – | – |
